Structures can show the parent of a compound that is named as a salt.
How the values were obtained:
[1] = target: T1, PIM1 serine/threonine kinase (Homo sapiens, UniProt P11309); test: PIM1 serine/threonine kinase inhibitory effect; type: biochemical; settings: PIM1 serine/threonine kinase activity; ATP 40 μM; 30° C., 30 minutes
T1 construct: purchased Carna Bioscience, Inc
Outline: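 Compounds were tested in duplicate from 0.01 to 10000 nM final against PIM1 kinase (0.15 μg/ml). The reaction ran for 30 minutes at 30° C with 40 μM ATP and 0.5 μM biotin-tagged substrate at pH 7.0. Phosphorylation was read by time-resolved FRET (OD665/OD620) after 1 h; IC50 by non-linear fit.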

[2] = target: PIM1 transgenic cells (Ba/F3) (Homo sapiens, UniProt P11309); test: Proliferation inhibitory effect on PIM1 transgenic cells; type: cell-based, mouse; settings: proliferation inhibition, 72 hours, Cell Counting Kit-8, read-out: PIM1 IC50
PIM1 transgenic cells (Ba/F3), sequence (P11309 whole entry, stated change not applied): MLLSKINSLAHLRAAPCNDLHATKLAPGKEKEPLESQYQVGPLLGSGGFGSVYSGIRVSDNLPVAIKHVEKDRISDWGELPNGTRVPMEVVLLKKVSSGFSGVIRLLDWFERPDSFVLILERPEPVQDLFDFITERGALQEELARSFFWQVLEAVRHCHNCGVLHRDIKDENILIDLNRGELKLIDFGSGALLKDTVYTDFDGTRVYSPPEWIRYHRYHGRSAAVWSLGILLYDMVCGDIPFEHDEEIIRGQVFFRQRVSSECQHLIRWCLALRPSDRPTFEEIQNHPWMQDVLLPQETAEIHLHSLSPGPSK
Outline: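 Mouse Ba/F3 pro-B cells were retrovirally transduced with human PIM1 so that their proliferation depends on PIM1. Cells were treated with compound at 1–10000 nM final for 72 h, then read by CCK-8 (OD450−OD650). Inhibition was set against DMSO (0%) and no-cell blank (100%), and IC50 was obtained by two-parameter logistic regression.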

T1 sequence (P11309 whole entry): as the sequence (P11309 whole entry, stated change not applied) above

IC50 [1] | GI50 [2] | SMILES
2.2 nM | 25 nM | C[C@H](Nc1cc(-c2n[nH]c(=O)o2)cc(F)c1C(F)(F)F)[C@H]1C[C@@H](N)C1 [Example 165, 5-[3-({(1S)-1-[(1s,3R)-3-aminocyclobutyl]ethyl}amino)-5-fluoro-4-(trifluoromethyl)phenyl]-1,3,4-oxadiazol-2(3H)-one]
6 nM | 370 nM | CC1(CNc2cc(-c3n[nH]c(=O)o3)ccc2C(F)(F)F)CCNCC1 [Example 57, 5-[3-{[(4-methylpiperidin-4-yl)methyl]amino}-4-(trifluoromethyl)phenyl]-1,3,4-oxadiazol-2(3H)-one hydrochloride]
12 nM | 1300 nM | NCC(O)C1CCN(c2cc(-c3n[nH]c(=O)o3)ccc2C(F)(F)F)CC1 (stereo not shown) [Example 14, 5-{3-[4-(2-amino-1-hydroxyethyl)piperidin-1-yl]-4-(trifluoromethyl)phenyl}-1,3,4-oxadiazol-2(3H)-one hydrochloride]
14 nM | 610 nM | CC1CC(CNc2cc(-c3n[nH]c(=O)o3)ccc2C(F)(F)F)CCN1 (stereo not shown) [Example 143, 5-[3-{[(2-methylpiperidin-4-yl)methyl]amino}-4-(trifluoromethyl)phenyl]-1,3,4-oxadiazol-2(3H)-one hydrochloride]
8.4 nM | 920 nM | N[C@@H]1CCCN(CCNc2cc(-c3n[nH]c(=O)o3)ccc2C(F)(F)F)C1 [Example 72, 5-[3-({2-[(3R)-3-aminopiperidin-1-yl]ethyl}amino)-4-(trifluoromethyl)phenyl]-1,3,4-oxadiazol-2(3H)-one dihydrochloride]
21 nM | 570 nM | N[C@H]1CCCN(CCNc2cc(-c3n[nH]c(=O)o3)ccc2C(F)(F)F)C1 [Example 73, 5-[3-({2-[(3S)-3-aminopiperidin-1-yl]ethyl}amino)-4-(trifluoromethyl)phenyl]-1,3,4-oxadiazol-2(3H)-one dihydrochloride]
29 nM | 3500 nM | O=c1[nH]nc(-c2ccc(C(F)(F)F)c(NC[C@@H]3C[C@H]4CC[C@@H](C3)N4)c2)o1 [Example 135, 5-[3-({[(1R,3s,5S)-8-azabicyclo[3.2.1]octan-3-yl]methyl}amino)-4-(trifluoromethyl)phenyl]-1,3,4-oxadiazol-2(3H)-one hydrochloride]
3.4 nM | 37 nM | CCc1c(F)cc(-c2n[nH]c(=O)o2)cc1N[C@@H](C)[C@H]1CC[C@H](N)CC1 [Example 231, 5-[3-({(1S)-1-[(1r,4S)-4-aminocyclohexyl]ethyl}amino)-4-ethyl-5-fluorophenyl]-1,3,4-oxadiazol-2(3H)-one hydrochloride]
3.9 nM | 110 nM | C[C@H](Nc1cc(-c2n[nH]c(=O)o2)ccc1C(F)(F)F)[C@H]1CC[C@@H](N)C1 [Example 199, 5-[3-({(1S)-1-[(1S,3R)-3-aminocyclopentyl]ethyl}amino)-4-(trifluoromethyl)phenyl]-1,3,4-oxadiazol-2(3H)-one hydrochloride]
14 nM | 3100 nM | CN(CC1CCNCC1)c1cc(-c2n[nH]c(=O)o2)ccc1C(F)(F)F [Example 51, 5-[3-{methyl[(piperidin-4-yl)methyl]amino}-4-(trifluoromethyl)phenyl]-1,3,4-oxadiazol-2(3H)-one hydrochloride]
12 nM | 280 nM | C[C@H](Nc1cc(-c2n[nH]c(=O)o2)ccc1C(F)(F)F)[C@H]1CCC[C@@H](N)C1 [Example 194, 5-[3-({(1S)-1-[(1S,3R)-3-aminocyclohexyl]ethyl}amino)-4-(trifluoromethyl)phenyl]-1,3,4-oxadiazol-2(3H)-one hydrochloride]
29 nM | 1000 nM | N[C@H]1CO[C@H](C2CC2c2cc(-c3n[nH]c(=O)o3)ccc2C(F)(F)F)OC1 (stereo partly shown) [Example 161, 5-[3-{2-[(2r,5r)-5-amino-1,3-dioxan-2-yl]cyclopropyl}-4-(trifluoromethyl)phenyl]-1,3,4-oxadiazol-2(3H)-one hydrochloride]
8 nM | 200 nM | O=c1[nH]nc(-c2ccc(C(F)(F)F)c(NCC3C4CCC3CNC4)c2)o1 (stereo not shown) [Example 133, 5-[3-{[(3-azabicyclo[3.2.1]octan-8-yl)methyl]amino}-4-(trifluoromethyl)phenyl]-1,3,4-oxadiazol-2(3H)-one hydrochloride]
31 nM | 1300 nM | N[C@H]1CC[C@H](CCNc2cc(-c3n[nH]c(=O)o3)ccc2C(F)(F)F)CC1 [Example 117, 5-[3-({2-[(1r,4r)-4-aminocyclohexyl]ethyl}amino)-4-(trifluoromethyl)phenyl]-1,3,4-oxadiazol-2(3H)-one hydrochloride]
12 nM | 89 nM | O=c1[nH]nc(-c2ccc(C(F)(F)F)c(N[C@H](C3CCNCC3)C(F)(F)F)c2)o1 [Example 146, 5-[4-(trifluoromethyl)-3-{[(1R)-2,2,2-trifluoro-1-(piperidin-4-yl)ethyl]amino}phenyl]-1,3,4-oxadiazol-2(3H)-one hydrochloride]
20 nM | 550 nM | N[C@H]1CC[C@H](Nc2cc(-c3n[nH]c(=O)o3)ccc2OC(F)(F)F)CC1 [Example 38, 5-[3-{[(1r,4r)-4-aminocyclohexyl]amino}-4-(trifluoromethoxy)phenyl]-1,3,4-oxadiazol-2(3H)-one hydrochloride]

Further lines, the compound ahead of its results:

SMILES | IC50 [1] | GI50 [2]
O=c1[nH]nc(-c2ccc(Cl)c(NC[C@@H]3CCNC3)c2)o1 [Example 49, 5-[4-chloro-3-({[(3R)-pyrrolidin-3-yl]methyl}amino)phenyl]-1,3,4-oxadiazol-2(3H)-one hydrochloride] | 18 nM | 7600 nM
C[C@H](Nc1cc(Cl)cc(-c2n[nH]c(=O)o2)c1)C1CCNCC1 [Example 105, 5-(3-chloro-5-{[(1S)-1-(piperidin-4-yl)ethyl]amino}phenyl)-1,3,4-oxadiazol-2(3H)-one dihydrochloride] | 12 nM | 550 nM
N[C@H]1CO[C@H](CCc2cc(-c3n[nH]c(=O)o3)ccc2C(F)(F)F)OC1 [Example 28, 5-[3-{2-[(2r,5r)-5-amino-1,3-dioxan-2-yl]ethyl}-4-(trifluoromethyl)phenyl]-1,3,4-oxadiazol-2(3H)-one hydrochloride] | 38 nM | 3500 nM
C[C@H](Nc1cc(-c2n[nH]c(=O)o2)cc(F)c1C(F)(F)F)[C@H]1C[C@@H](N)C1(C)C [Example 164, 5-[3-({(1S)-1-[(1S,3R)-3-amino-2,2-dimethylcyclobutyl]ethyl}amino)-5-fluoro-4-(trifluoromethyl)phenyl]-1,3,4-oxadiazol-2(3H)-one hydrochloride] | 1.7 nM | 25 nM
C[C@H](Nc1c(F)c(-c2n[nH]c(=O)o2)cc(F)c1Cl)[C@H]1CC[C@H](N)CC1 [Example 169, 5-[3-({(1S)-1-[(1r,4S)-4-aminocyclohexyl]ethyl}amino)-4-chloro-2,5-difluorophenyl]-1,3,4-oxadiazol-2(3H)-one hydrochloride] | 6.5 nM | 310 nM
NCc1ccc(-c2cc(-c3n[nH]c(=O)o3)ccc2C(F)(F)F)cc1 [Example 20, 5-[4′-(aminomethyl)-6-(trifluoromethyl)[1,1′-biphenyl]-3-yl]-1,3,4-oxadiazol-2(3H)-one hydrochloride] | 33 nM | 4500 nM
C[C@@H]1CNCC[C@@H]1[C@H](C)Nc1cc(-c2n[nH]c(=O)o2)cc(F)c1Cl [Example 222, 5-[4-chloro-3-fluoro-5-({(1S)-1-[(3S,4S)-3-methylpiperidin-4-yl]ethyl}amino)phenyl]-1,3,4-oxadiazol-2(3H)-one] | 2.4 nM | 19 nM
C[C@H](Nc1cc(-c2n[nH]c(=O)o2)ccc1Cl)[C@H]1C[C@@H](N)C1(C)C [Example 168, 5-[3-({(1S)-1-[(1S,3R)-3-amino-2,2-dimethylcyclobutyl]ethyl}amino)-4-chlorophenyl]-1,3,4-oxadiazol-2(3H)-one] | 10 nM | 110 nM
C[C@H](Nc1c(F)c(-c2n[nH]c(=O)o2)cc(F)c1Cl)C1CCNCC1 [Example 88, 5-(4-chloro-2,5-difluoro-3-{[(1S)-1-(piperidin-4-yl)ethyl]amino}phenyl)-1,3,4-oxadiazol-2(3H)-one hydrochloride] | 2.4 nM | 110 nM
C[C@H](Nc1cc(-c2n[nH]c(=O)o2)cc(S(F)(F)(F)(F)F)c1)C1CCNCC1 [Example 107, 5-[3-(pentafluoro-λ^6-sulfanyl)-5-{[(1S)-1-(piperidin-4-yl)ethyl]amino}phenyl]-1,3,4-oxadiazol-2(3H)-one hydrochloride] | 25 nM | 6500 nM
C[C@H](Nc1cc(-c2n[nH]c(=O)o2)cc(F)c1C(F)(F)F)[C@@H]1CCNC[C@@H]1C [Example 211, 5-[3-fluoro-5-({(1S)-1-[(3R,4R)-3-methylpiperidin-4-yl]ethyl}amino)-4-(trifluoromethyl)phenyl]-1,3,4-oxadiazol-2(3H)-one] | 4.9 nM | 110 nM
Cc1ccc(-c2n[nH]c(=O)o2)cc1NC[C@H]1CC[C@H](N)CC1 [Example 67, 5-[3-({[(1r,4r)-4-aminocyclohexyl]methyl}amino)-4-methylphenyl]-1,3,4-oxadiazol-2(3H)-one hydrochloride] | 26 nM | 610 nM
C[C@H](Nc1cc(-c2n[nH]c(=O)o2)cc(F)c1OC(F)(F)F)C1(C)CCNCC1 [Example 207, 5-[3-fluoro-5-{[(1S)-1-(4-methylpiperidin-4-yl)ethyl]amino}-4-(trifluoromethoxy)phenyl]-1,3,4-oxadiazol-2(3H)-one] | 2.6 nM | 50 nM

From patent US20220024921A1, “1,3,4-OXADIAZOLONE COMPOUND AND PHARMACEUTICAL” (NIPPON SHINYAKU CO., LTD., priority 2018, published 2022)
